According to patent US12553037B2, “Engineered class 2, type V repressor systems” (Scribe Therapeutics Inc., priority 2021, dated 2026):

System: B2M gene
Assay: B2M reactivation by 5-azadC in cells silenced by ELXR5-ZIM3 or CasX 491 (Example 12)
Settings: 0 μM to 20 μM 5-azadC; B2M-targeting gRNA

Nc1ncn([C@H]2C[C@H](O)[C@@H](CO)O2)c(=O)n1 [5-azadC, 5-aza-2′-deoxycytidine, reference compound]
reactivation of the B2M gene upon 5-azadC treatment: reactivation of the B2M gene
